Assay results as given in ChEMBL document CHEMBL1201862, “PubChem BioAssay data set” (2004).
Active and inactive are the calls of the source.

Legend:
Paired box protein Pax-8 = Paired box protein Pax-8 (Homo sapiens, UniProt Q06710); assay: inhibitors of PAX8-driven TPO luciferase reporter, dose response, RMG-I cells, cherry-pick (AID 687027); format: functional, cell-based;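 further: luciferase reporter driven by Pax8 target thyroperoxidase promoter measured by SteadyGlo luminescence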
[1] = target: T1, Microphthalmia-associated transcription factor (Homo sapiens, UniProt O75030); assay: TRPM1 promoter luciferase signal decrease, dose response, MITF inhibitor project, cell-based, SK-MEL-5, cherry-picked, set 3 (AID 493073); format: functional
T1 sequence (O75030 whole entry): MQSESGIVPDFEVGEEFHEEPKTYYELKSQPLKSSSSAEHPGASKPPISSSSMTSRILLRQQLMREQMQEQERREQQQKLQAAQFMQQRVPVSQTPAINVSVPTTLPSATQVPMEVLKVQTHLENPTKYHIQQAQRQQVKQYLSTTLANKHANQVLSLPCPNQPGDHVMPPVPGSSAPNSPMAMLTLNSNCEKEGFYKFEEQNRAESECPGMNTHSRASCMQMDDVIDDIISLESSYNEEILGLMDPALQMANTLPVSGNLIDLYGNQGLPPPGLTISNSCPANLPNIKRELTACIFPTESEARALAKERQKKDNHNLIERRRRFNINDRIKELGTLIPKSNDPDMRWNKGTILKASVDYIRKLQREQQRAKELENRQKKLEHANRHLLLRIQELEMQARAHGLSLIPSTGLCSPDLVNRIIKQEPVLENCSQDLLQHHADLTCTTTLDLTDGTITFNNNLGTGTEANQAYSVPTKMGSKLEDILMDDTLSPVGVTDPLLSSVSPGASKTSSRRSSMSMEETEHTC

[2] = target: DNA dC->dU-editing enzyme APOBEC-3A (Homo sapiens, UniProt P31941); assay: Dose Response confirmation of small molecule APOBEC3A DNA Deaminase Inhibitors via a fluorescence-based single-stranded DNA deaminase assay. [Related pubchem assays (depositor defined):AID493011, AID493024]; format: functional
[3] = target: DNA dC->dU-editing enzyme APOBEC-3G (Homo sapiens, UniProt Q9HC16); format: functional;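 further: Dose-response counterscreen measuring inhibition of APOBEC3G DNA deaminase activity, run while confirming APOBEC3A inhibitors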
[4] = cytotoxicity toward NIH3T3 fibroblasts, dose response, counter-screen, cell-based, ATP luminescence, mouse fibroblasts (AID 2010); format: functional;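 further: cells exposed to compound for about 90 hours before reading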
[5] = inhibitors of intracellular T. cruzi replication, confirmation, NIH3T3 host cells, beta-gal luminescence (AID 2044); format: functional, cell-based;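 further: intracellular parasites grown in NIH/3T3 mouse fibroblasts as host cells; luminescent beta-galactosidase reporter signal from transgenic T. cruzi replicating inside host cells; inhibitors lower the luminescence signal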
Cytochrome P450 2C9 [6] = target: T2, Cytochrome P450 2C9 (Homo sapiens, UniProt P11712)
Cytochrome P450 2C19 = Cytochrome P450 2C19 (Homo sapiens, UniProt P33261); assay: Cytochrome panel assay with activity outcomes. Panel member name: p450-cyp2c19 Compounds with AC50 equal or less than 10 uM are considered active; format: functional; conditions: read-out: AC50
[7] = target: T3, Histone-lysine N-methyltransferase NSD2 (Homo sapiens, UniProt O96028); format: biochemical
T3 sequence (O96028 whole entry): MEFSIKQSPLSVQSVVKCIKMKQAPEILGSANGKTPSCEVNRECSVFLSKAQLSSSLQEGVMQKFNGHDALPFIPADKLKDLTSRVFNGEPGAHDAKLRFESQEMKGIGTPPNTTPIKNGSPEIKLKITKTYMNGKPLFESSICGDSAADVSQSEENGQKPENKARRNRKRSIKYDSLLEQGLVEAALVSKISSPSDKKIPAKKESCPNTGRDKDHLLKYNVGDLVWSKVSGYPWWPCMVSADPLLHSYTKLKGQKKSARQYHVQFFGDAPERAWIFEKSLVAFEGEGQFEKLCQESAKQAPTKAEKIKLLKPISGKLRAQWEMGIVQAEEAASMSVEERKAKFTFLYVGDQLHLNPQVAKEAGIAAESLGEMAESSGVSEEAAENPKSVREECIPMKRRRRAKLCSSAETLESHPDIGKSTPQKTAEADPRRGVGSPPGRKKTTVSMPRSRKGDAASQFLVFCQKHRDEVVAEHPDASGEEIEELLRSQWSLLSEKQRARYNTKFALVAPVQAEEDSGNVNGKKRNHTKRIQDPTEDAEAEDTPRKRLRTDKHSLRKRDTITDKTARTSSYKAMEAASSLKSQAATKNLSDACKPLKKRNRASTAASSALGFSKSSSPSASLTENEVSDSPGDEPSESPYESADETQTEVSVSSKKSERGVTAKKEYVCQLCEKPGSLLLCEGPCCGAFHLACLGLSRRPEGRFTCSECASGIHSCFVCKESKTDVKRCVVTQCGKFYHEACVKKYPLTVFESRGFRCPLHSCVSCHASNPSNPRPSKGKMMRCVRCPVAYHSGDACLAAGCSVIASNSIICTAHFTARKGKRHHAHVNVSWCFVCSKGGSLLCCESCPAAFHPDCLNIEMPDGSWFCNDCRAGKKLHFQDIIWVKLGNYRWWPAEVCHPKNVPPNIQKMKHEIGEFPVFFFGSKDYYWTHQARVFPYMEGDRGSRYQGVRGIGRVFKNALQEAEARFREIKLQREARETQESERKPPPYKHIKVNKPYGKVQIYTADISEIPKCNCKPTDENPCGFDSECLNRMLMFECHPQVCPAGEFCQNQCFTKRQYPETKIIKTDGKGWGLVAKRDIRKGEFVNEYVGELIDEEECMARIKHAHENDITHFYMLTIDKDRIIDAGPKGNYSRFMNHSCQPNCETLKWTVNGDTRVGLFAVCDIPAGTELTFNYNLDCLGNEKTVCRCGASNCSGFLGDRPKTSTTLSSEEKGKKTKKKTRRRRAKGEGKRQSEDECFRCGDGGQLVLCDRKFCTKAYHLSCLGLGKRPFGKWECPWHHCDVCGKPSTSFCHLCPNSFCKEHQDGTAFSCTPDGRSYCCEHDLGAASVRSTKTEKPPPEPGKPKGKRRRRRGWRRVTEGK

[8] = target: T4, Polyadenylate-binding protein 1 (Homo sapiens, UniProt P11940); assay: PABP1 MLLE–PAM2 binding inhibitor potency, dose response, biochemical, fluorescence polarization, FITC-PAM2 peptide (AID 602259); format: functional; conditions: read-out: IC50_Mean
[9] = target: T5, Tyrosyl-DNA phosphodiesterase 2 (Homo sapiens, UniProt O95551); assay: human TDP2 enzyme inhibitors, dose response, biochemical, epi absorbance, IC50 (AID 743297)
T5 sequence (O95551 whole entry): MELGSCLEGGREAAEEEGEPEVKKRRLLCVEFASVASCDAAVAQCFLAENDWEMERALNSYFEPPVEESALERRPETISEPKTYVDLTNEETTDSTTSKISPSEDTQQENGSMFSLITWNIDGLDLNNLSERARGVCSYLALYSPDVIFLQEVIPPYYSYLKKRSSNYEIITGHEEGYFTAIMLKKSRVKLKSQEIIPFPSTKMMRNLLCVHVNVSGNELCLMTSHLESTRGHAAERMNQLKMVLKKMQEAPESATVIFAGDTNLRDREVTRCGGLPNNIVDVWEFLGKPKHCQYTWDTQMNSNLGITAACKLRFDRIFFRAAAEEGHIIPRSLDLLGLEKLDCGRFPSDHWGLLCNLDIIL

[10] = target: T4, Polyadenylate-binding protein 1; assay: PABP1 MLLE–PAM2 interaction inhibitors, dose response, miRNA deadenylation inhibitor project, biochemical, fluorescence polarization, Cy5-PAM2 peptide, secondary (AID 602260); format: functional; conditions: read-out: IC50_Mean
BJ [11] = assay: cells; format: functional, cell-based; conditions: Homo sapiens
[12] = cytotoxicity toward DRD oncogenic fibroblasts, dose response, cell-based, non-viral oncogenic, luminescence (AID 1934); format: functional; conditions: Homo sapiens
BJ [13] = assay: cytotoxicity toward BJ-TERT-LT-ST fibroblasts, dose response, cell-based, RAS-independent, luminescence (AID 1935); format: functional; conditions: Homo sapiens;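 further: BJ fibroblasts immortalized with TERT plus LT and ST oncogenes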
BJ [14] = assay: cytotoxicity toward BJ-TERT fibroblasts, dose response, cell-based, RAS-independent, luminescence (AID 1933); format: functional; conditions: Homo sapiens
Cytochrome P450 1A2 = target: T6, Cytochrome P450 1A2 (Homo sapiens, UniProt P05177);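 further: PubChem cytochrome P450 panel assay, CYP1A2 panel member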
T6 sequence (P05177 whole entry): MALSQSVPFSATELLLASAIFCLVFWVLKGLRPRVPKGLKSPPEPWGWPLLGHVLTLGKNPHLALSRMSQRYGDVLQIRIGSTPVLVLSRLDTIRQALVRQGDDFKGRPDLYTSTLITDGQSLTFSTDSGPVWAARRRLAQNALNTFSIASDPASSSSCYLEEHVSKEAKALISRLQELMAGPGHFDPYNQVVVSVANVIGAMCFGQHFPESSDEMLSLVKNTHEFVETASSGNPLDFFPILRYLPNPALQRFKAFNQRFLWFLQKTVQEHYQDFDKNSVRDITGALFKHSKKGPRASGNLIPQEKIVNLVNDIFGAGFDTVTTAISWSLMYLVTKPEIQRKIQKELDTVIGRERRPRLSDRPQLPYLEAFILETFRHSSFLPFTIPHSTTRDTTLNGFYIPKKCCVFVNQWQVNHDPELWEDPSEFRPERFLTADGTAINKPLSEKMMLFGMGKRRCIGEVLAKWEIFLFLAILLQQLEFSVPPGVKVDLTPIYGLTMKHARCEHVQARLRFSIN

Cytochrome P450 2C9 [15] = target: T2, Cytochrome P450 2C9; remark: listed apart in the source
Cytochrome P450 2D6 = Cytochrome P450 2D6 (Homo sapiens, UniProt P10635);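 further: CYP2D6 member of a cytochrome P450 panel assay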
[16] = target: T7, Mannose-6-phosphate isomerase (Homo sapiens, UniProt P34949); assay: human PMI inhibitors, high substrate, primary screen, biochemical, fluorescence intensity, high mannose 6-phosphate (AID 1220)
T7 sequence (P34949 whole entry): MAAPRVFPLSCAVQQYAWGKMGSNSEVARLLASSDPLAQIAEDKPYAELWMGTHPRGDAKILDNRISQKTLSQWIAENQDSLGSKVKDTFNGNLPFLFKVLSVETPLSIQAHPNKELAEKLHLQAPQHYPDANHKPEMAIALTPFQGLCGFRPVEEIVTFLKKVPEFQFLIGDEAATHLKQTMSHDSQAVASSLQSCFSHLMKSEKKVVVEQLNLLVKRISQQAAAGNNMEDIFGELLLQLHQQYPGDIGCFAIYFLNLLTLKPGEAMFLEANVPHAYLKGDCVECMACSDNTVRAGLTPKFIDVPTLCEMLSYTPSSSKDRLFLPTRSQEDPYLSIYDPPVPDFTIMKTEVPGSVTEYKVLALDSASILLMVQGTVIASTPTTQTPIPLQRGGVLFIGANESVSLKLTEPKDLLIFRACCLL

T2 sequence (P11712 whole entry): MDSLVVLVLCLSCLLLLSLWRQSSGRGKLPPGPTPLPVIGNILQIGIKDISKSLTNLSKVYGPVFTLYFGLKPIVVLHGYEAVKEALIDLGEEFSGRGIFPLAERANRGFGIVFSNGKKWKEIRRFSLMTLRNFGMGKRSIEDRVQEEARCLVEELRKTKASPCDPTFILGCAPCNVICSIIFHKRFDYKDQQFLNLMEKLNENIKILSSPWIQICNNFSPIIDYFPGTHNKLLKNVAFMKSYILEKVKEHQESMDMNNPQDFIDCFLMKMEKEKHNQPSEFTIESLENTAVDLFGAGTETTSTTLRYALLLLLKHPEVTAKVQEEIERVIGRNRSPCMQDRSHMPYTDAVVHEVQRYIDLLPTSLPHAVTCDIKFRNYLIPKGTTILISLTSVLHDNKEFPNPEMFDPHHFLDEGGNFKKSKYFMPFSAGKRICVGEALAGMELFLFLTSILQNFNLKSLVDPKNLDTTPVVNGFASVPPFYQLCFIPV
T4 sequence (P11940 whole entry): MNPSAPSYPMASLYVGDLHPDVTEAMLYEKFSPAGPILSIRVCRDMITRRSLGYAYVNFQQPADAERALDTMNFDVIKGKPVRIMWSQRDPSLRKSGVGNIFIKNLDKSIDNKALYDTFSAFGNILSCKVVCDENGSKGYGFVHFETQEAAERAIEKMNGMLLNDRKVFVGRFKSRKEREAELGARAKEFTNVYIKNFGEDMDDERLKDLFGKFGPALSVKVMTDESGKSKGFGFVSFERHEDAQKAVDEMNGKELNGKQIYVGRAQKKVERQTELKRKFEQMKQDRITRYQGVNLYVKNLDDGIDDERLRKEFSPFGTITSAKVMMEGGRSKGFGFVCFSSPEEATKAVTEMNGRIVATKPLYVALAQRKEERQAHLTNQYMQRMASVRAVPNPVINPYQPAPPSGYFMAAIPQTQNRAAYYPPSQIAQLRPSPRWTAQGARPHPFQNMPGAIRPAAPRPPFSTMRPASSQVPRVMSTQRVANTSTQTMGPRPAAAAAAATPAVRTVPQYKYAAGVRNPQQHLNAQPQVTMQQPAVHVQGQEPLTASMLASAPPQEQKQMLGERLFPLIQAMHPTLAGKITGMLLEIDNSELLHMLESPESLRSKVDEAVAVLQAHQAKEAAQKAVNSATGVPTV
Chain of DNA dC->dU-editing enzyme APOBEC-3A (P31941 whole entry): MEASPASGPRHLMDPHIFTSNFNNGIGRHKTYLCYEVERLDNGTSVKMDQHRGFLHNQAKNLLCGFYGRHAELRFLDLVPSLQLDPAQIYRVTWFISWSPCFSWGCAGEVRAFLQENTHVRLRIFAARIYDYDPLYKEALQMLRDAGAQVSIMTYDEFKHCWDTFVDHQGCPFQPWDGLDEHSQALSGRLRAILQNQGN
Chain of DNA dC->dU-editing enzyme APOBEC-3G (Q9HC16 whole entry): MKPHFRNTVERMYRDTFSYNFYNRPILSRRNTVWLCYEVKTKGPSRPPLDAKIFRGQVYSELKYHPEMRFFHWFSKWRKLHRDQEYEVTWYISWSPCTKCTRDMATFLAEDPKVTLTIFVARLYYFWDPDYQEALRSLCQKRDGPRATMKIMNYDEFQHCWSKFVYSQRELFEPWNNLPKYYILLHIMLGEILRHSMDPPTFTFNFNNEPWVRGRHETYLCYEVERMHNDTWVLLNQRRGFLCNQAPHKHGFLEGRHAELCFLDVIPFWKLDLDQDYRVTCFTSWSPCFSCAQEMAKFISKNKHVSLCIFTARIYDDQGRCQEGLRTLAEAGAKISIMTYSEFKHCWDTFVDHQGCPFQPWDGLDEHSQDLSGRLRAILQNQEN
Chain of Cytochrome P450 2C19 (P33261 whole entry): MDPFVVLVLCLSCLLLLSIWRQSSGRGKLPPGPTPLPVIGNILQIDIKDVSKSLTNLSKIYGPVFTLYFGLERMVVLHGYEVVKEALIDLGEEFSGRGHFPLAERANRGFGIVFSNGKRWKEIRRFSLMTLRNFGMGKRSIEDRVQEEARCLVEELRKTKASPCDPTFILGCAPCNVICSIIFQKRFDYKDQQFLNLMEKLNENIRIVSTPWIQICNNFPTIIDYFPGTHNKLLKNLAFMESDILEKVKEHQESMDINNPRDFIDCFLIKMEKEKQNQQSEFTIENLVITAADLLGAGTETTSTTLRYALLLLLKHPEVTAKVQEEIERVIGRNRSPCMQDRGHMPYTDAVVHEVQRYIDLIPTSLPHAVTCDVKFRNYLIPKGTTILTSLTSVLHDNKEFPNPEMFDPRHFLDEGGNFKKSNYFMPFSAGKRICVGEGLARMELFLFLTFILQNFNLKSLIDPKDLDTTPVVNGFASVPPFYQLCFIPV
Chain of Paired box protein Pax-8 (Q06710 whole entry): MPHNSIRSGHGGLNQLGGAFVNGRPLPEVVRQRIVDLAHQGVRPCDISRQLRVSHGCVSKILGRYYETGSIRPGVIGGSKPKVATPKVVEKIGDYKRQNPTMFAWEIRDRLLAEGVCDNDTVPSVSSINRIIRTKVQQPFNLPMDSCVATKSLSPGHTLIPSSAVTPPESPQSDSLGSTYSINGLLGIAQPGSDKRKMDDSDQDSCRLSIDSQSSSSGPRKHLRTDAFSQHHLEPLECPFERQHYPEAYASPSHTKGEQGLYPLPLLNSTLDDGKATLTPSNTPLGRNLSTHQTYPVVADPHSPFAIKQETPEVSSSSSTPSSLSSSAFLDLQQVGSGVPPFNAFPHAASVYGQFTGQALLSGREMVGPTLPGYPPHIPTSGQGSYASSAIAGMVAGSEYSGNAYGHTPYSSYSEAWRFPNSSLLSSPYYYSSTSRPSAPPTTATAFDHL
Chain of Cytochrome P450 2D6 (P10635 whole entry): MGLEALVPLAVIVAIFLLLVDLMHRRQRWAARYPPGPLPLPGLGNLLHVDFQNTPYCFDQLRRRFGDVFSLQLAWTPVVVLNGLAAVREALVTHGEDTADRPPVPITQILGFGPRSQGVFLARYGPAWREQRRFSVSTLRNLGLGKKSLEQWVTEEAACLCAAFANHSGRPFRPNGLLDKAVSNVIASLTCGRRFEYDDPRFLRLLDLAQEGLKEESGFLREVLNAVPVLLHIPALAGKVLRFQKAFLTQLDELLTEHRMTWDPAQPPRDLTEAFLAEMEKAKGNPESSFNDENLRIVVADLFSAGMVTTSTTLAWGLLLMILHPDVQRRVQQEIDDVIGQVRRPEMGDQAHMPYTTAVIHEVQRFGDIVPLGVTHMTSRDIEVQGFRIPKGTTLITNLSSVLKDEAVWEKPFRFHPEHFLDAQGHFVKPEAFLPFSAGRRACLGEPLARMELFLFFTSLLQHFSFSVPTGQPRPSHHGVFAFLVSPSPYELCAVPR

## COc1ccccc1NS(=O)(=O)c1cccc(C(=O)N/N=C/c2ccc([N+](=O)[O-])o2)c1
Paired box protein Pax-8
  AC50: 6.29 µM (active)
[1]
  AC50: 4.3 µM (active)

## CCOCc1cnc(C)nc1NCC(=O)c1c(C)[nH]c2cc(C)ccc12
[2]
  IC50: 4.29 µM (active)
[3]
  IC50: 4.04 µM (active)

## Cc1ccc2c(C(=O)CCl)c(C)[nH]c2c1
[4]
  EC50: 11.3 µM (active)
[1]
  AC50: 8.17 µM (active)
[5]
  EC50: 3.94 µM (active)

## CCCC[N+]12CCC(CC1)C(C(=O)c1cccs1)C2 (stereo not given)
Cytochrome P450 2C9 [6]
  AC50: 10 µM (inconclusive)
[2]
  IC50: 2.42 µM (active)
[3]
  IC50: 2.56 µM (active)
Cytochrome P450 2C19
  AC50: 39.8 µM (inconclusive)

## C=CCN(CC=C)C(=S)Nc1ccc2nsnc2c1
[7]
  AC50: 15 µM (active)
[8]
  IC50: > 66 µM (inactive)
[9]
  IC50: > 128 µM (inactive)
[10]
  IC50: > 66 µM (inactive)

## O=C(CCl)Nc1ccc(Oc2cnc3ccccc3n2)cc1
BJ [11]
  EC50: > 150 µM (not active)
[12]
  EC50: 16.9 µM (active)
BJ [13]
  EC50: > 75 µM (inconclusive)
BJ [14]
  EC50: 6.36 µM (active)
Cytochrome P450 1A2
  AC50: 8.91 µM (inconclusive)
Cytochrome P450 2C9 [15]
  AC50: inconclusive

## CC1CCN(C(=O)C2CCN(S(=O)(=O)c3cccc4nonc34)CC2)CC1
Cytochrome P450 2C9 [15]
  AC50: inconclusive

## C=CCNc1nc(SCC=C)nc2ccsc12
Cytochrome P450 2C9 [15]
  AC50: inconclusive
Cytochrome P450 2D6
  AC50: 15.8 µM (inconclusive)

## CC1=CC(=Nc2c(C)n(C)n(-c3ccccc3)c2=O)C=C(C)C1=O
[16]
  IC50: 13.2 µM (active)
